Laboratory results from patent US20220281831A1, “FUSED-GLUTARIMIDE CRBN LIGANDS AND USES THEREOF” (Kymera Therapeutics, Inc., priority 2019, published 2022).

Columns and labels:
CRBN-DDB1 = CRBN-DDB1 (Homo sapiens, UniProt Q96SW2); experiment: Fluorescence Polarization (FP) CRBN binding assay, probe TM-493 (FAM-BB-100); conditions: CRBN-DDB1, TM-493 probe, 60 min room temperature
Protocol: Fluorescence Polarization (FP) Assay
Materials: PerkinElmer EnVision 2104 Multilabel Reader, PerkinElmer FITC FP dual emission Label 2100-8060, Corning 384-well microplate #4514, V-CMR-TM-493 (FAM-BB-100), and CRBN-DDB1-180605.
Methods: Dilution buffer (50 mM HEPES-Na pH 7.5, 100 mM NaCl, 2 mM DTT, and 0.005% Tween-20) and compound DMSO dilutions were prepared. 4× compound working solutions were made with 8% DMSO (4×) and 13.8 μL/well of dilution buffer was placed in a new 96-well plate and 1.2 μL/well of above compound DMSO dilutions were added to the wells. 40 nM (4×) TM-493 in dilution buffer was prepared from a 10 μM DMSO stock and 15 μL per well of the TM-493 working solution was transferred into the compound working solution. 160 nM (2×) CRBN-DDB1 working solution was prepared with Dilution Buffer and 10 μL/well were added into a 384-well plate. 10 μL per well of the TM-493/compound mixture were transferred into the 384-well plate. The “positive control” was sample without protein and compound in 2% DMSO. After incubation at room temperature for 60 min, data was collected and read on data on an EnVision with the following setting: Excitation Light (%): 100; Measurement Height: 9.4; G-Factor: 1; Detector Gain 1: 200; Detector Gain 2: 200; Flash Number: 100. Data was processed using GraphPad Prism 7.0
(§1) The compound numbers correspond to the compound numbers in Table 1.

[1] = biological target: His-tagged CRBN-DDB1 complex (Homo sapiens, UniProt Q96SW2); experiment: Time-Resolved Fluorescence Resonance Energy Transfer (TR-FRET / HTRF) CRBN binding assay, displacement of Cy5-labeled thalidomide; conditions: His-CRBN-DDB1, Cy5-thalidomide 8 nM, 1 hour room temperature
Protocol: Time-Resolved Fluorescence Resonance Energy Transfer (TR-FRET) Assay.
Equal volumes of His-tagged CRBN-DDB1 complex (56 nM) was mixed with Eu-cryptate labeled Anti-6HIS-monoclonal antibody (50× dilution from the commercial stock solution, Vender: Cisbio, Cat. #61HI2KLA) in a final buffer containing 20 mM HEPES pH 7.0, 150 mM NaCl, 0.005% Tween-20. […] The mixture were incubated at room temperature for 1 hour. FRET signals were measured on an EnVision plate reader (Perkin Elmer) by exciting at 340 nm and recording emission at both 615 nm as no FRET control and 665 nm as the FRET signals with a 60 microsecond delay. FRET efficiency was calculated as the ratio of fluorescent signals at […]. Quantitative loss of FRET efficiency as a function of compound concentrations was fitted by a four-parameter Logistic Function using GraphPad Prism 7.0 and the IC50 values were reported for each compound.
as §1

CRBN-DDB1, sequence (Q96SW2 whole entry): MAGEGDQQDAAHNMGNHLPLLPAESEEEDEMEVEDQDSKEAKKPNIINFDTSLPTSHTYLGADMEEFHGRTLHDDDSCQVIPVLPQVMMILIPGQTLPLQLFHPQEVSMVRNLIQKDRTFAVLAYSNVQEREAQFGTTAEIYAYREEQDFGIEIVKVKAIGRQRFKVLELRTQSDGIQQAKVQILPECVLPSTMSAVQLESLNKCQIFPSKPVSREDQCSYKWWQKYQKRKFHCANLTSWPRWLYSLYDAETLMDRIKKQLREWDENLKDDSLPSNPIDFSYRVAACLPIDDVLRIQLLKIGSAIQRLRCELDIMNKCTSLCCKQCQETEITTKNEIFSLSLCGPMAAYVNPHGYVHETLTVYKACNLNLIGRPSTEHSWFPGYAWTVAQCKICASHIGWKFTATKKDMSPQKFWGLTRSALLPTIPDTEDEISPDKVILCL
CRBN-DDB1, sequence (Q16531 whole entry partner): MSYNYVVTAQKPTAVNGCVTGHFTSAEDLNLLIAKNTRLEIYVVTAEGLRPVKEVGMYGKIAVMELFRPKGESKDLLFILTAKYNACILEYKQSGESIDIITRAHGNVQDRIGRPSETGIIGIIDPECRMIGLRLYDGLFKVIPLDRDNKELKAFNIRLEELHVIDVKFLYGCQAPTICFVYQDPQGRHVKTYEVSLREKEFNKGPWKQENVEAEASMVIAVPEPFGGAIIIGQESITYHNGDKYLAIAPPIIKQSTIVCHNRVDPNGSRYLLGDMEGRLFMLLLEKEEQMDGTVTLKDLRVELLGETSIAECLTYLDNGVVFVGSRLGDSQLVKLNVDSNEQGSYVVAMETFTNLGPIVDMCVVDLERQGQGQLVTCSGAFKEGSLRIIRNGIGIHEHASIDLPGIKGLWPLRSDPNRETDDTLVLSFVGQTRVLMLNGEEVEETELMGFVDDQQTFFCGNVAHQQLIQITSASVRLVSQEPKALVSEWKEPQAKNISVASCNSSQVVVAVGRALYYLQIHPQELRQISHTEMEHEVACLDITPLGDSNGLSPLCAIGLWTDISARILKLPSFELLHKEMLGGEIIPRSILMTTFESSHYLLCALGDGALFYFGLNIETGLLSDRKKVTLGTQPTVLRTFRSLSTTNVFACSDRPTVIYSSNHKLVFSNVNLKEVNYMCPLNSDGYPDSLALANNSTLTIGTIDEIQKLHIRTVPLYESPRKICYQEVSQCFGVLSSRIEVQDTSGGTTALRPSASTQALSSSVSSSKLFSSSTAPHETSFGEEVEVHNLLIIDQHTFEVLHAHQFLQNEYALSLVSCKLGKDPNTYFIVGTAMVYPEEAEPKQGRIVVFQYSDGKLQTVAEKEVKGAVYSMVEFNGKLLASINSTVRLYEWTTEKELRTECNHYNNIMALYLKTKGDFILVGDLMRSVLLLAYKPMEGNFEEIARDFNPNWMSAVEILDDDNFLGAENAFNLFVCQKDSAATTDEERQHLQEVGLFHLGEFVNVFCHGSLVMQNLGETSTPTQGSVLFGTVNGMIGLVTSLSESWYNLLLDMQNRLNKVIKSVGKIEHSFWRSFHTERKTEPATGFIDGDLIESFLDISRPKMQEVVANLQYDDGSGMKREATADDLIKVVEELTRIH
His-tagged CRBN-DDB1 complex, sequence (Q96SW2 whole entry): as the sequence (Q96SW2 whole entry) above
His-tagged CRBN-DDB1 complex, sequence (Q16531 whole entry partner): as the sequence (Q16531 whole entry partner) above

SMILES | IC50 (CRBN-DDB1) | IC50 [1]
Cc1ncoc1-c1cccc2c1C(=O)NC(=O)C2 [Compound I-25] | > 100 µM | 
O=C1Cc2cccc(Oc3cccnc3)c2C(=O)N1 [Compound I-271] | 10 to 30 µM | 
O=C1Cc2cccc(Oc3ccccc3Br)c2C(=O)N1 [Compound I-205] | < 10 µM | 
O=C1Cc2cccc(Oc3ccccc3[N+](=O)[O-])c2C(=O)N1 [Compound I-261] | 10 to 30 µM | 
O=C1Cc2cccc(Oc3ccccc3)c2CC(=O)N1 [Compound I-262] | > 100 µM | 
O=C1CC2(C(=O)N1)C(=O)Nc1ccccc12 (centres unmarked) [Compound I-176] | > 100 µM | 
Nc1cccc(C(=O)N2C[C@@H]3C(=O)NC(=O)[C@@H]3C2)c1 [Compound I-169] |  | > 100 µM
Cc1ncoc1C(=O)N1CCC2(CC1)CC(=O)NC(=O)C2 [Compound I-358] |  | > 100 µM
O=C1NC(=O)[C@@H]2CN(C(=O)c3ccc(Cl)cc3)C[C@H]12 [Compound I-286] |  | > 100 µM
O=C1CC2(CCN(Cc3ccc(-c4ccccc4)cc3)CC2)CC(=O)N1 [Compound I-346] |  | > 100 µM
O=C1NC(=O)[C@@H]2CN(C(=O)c3cccs3)C[C@H]12 [Compound I-321] |  | > 100 µM
O=C1CC2(CCN(C(=O)c3cnon3)CC2)CC(=O)N1 [Compound I-364] |  | > 100 µM
Nc1ccc(N2CCC3(CC2)CC(=O)NC(=O)C3)cc1 [Compound I-113] |  | > 100 µM
O=C1NC(=O)c2cc(NC(=O)N3CC=C(c4ccc(O)cc4)CC3)ccc21 [Compound I-378] |  | 30 to 100 µM
Cc1ccccc1N1C[C@@H]2C(=O)NC(=O)[C@@H]2C1 [Compound I-121] |  | > 100 µM
O=C1NC(=O)[C@@H]2CN(Cc3ccc(Oc4ccccc4)cc3)C[C@H]12 [Compound I-311] |  | 30 to 100 µM
Cc1ccc(CN2CCC3(CC2)CC(=O)NC(=O)C3)o1 [Compound I-356] |  | > 100 µM
CC(=O)Nc1cccc(N2CCC3(CC2)CC(=O)NC(=O)C3)c1 [Compound I-100] |  | > 100 µM

SMILES | IC50 (CRBN-DDB1) | IC50 [1]
O=C1CC2(CCN(c3ccc(OC(F)(F)F)cc3)CC2)CC(=O)N1 [Compound I-105] |  | > 100 µM
O=C1NC(=O)[C@@H]2CN(C(=O)c3ccc4ccccc4n3)C[C@H]12 [Compound I-167] |  | > 100 µM
CC(C)(C)OC(=O)NCc1ccc(N2CCC3(CC2)CC(=O)NC(=O)C3)cc1 [Compound I-108] |  | 30 to 100 µM
COC(=O)c1ccc(N2CCC3(CC2)CC(=O)NC(=O)C3)cc1 [Compound I-162] |  | > 100 µM
COc1cccc(N2C[C@@H]3C(=O)NC(=O)[C@@H]3C2)c1 [Compound I-125] |  | > 100 µM
Cc1cccc(CN2CCC3(CC2)CC(=O)NC(=O)C3)n1 [Compound I-349] |  | > 100 µM
Cc1cccc(C(=O)N2C[C@@H]3C(=O)NC(=O)[C@@H]3C2)n1 [Compound I-164] |  | > 100 µM
O=Cc1ccc(N2CCC3(CC2)CC(=O)NC(=O)C3)cc1 [Compound I-112] |  | > 100 µM
O=C1NC(=O)[C@@H]2CN(C(=O)c3n[nH]c4ccccc34)C[C@H]12 [Compound I-302] |  | > 100 µM
O=C1CC2(CCN(C(=O)Cc3ccccn3)CC2)CC(=O)N1 [Compound I-352] |  | > 100 µM
O=C1Cc2cnc(Br)cc2C(=O)N1 [Compound I-13, 7-bromo-2,4-dihydro-2,6-naphthyridine-1,3-dione] |  | > 100 µM
O=C1NC(=O)[C@@H]2CN(C(=O)c3coc(COc4ccc5c(c4)OCO5)n3)C[C@H]12 [Compound I-375] |  | 30 to 100 µM
O=C1Cc2cccc(Oc3cccc(Br)c3)c2C(=O)N1 [Compound I-207] | < 10 µM | 
Nc1ccccc1Oc1cccc2c1C(=O)NC(=O)C2 [Compound I-263] | 30 to 100 µM | 
Cc1ccc(Oc2ccccc2)c2c1CC(=O)NC2=O [Compound I-279] |  | 30 to 100 µM
Cn1c(=O)c2cc(Br)ccc2n(C)c1=O [Compound I-191] |  | > 100 µM
CS(=O)(=O)c1ccc(N2C[C@@H]3C(=O)NC(=O)[C@@H]3C2)cc1 [Compound I-144] |  | > 100 µM
